# Data taken from PubChem BioAssay (NCI).
# Values joined by “and” are separate entries in the source; they are usually repeats but may differ in a detail not shown here. Equal values may be shown once.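 Values below derive from 48-hour exposures of cells grown in 96-well plates, with endpoints linearly interpolated between the two concentrations bracketing the appropriate inhibition level. At the GI50, growth is halved. TGI: concentration producing complete growth inhibition.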
# Key:
# Experiment in all cases: inhibition of tumour cell growth, NCI panel, 48 h
# 786-0 renal = tested on: 786-0 renal
# NCI/ADR-RES ovarian = tested on: NCI/ADR-RES ovarian
# HOP-18 NSCLC = tested on: HOP-18 NSCLC
# HCC-2998 colon = tested on: HCC-2998 colon
# MOLT-4 leukemia = tested on: MOLT-4 leukemia
# SNB-75 CNS = tested on: SNB-75 CNS
# MDA-MB-231 breast = tested on: MDA-MB-231 breast
# SR leukemia = tested on: SR leukemia
# SF-295 CNS = tested on: SF-295 CNS
# MALME-3M melanoma = tested on: MALME-3M melanoma
# HOP-62 NSCLC = tested on: HOP-62 NSCLC
# SNB-19 CNS = tested on: SNB-19 CNS
# SK-MEL-2 melanoma = tested on: SK-MEL-2 melanoma
# SF-268 CNS = tested on: SF-268 CNS
# M19-MEL melanoma = tested on: M19-MEL melanoma
# MCF7 breast = tested on: MCF7 breast
# KM12 colon = tested on: KM12 colon
# SF-539 CNS = tested on: SF-539 CNS
# OVCAR-5 ovarian = tested on: OVCAR-5 ovarian
# OVCAR-3 ovarian = tested on: OVCAR-3 ovarian
# SK-MEL-5 melanoma = tested on: SK-MEL-5 melanoma
# A498 renal = tested on: A498 renal
# EKVX NSCLC = tested on: EKVX NSCLC
# T-47D breast = tested on: T-47D breast
# UACC-257 melanoma = tested on: UACC-257 melanoma
# HCT-116 colon = tested on: HCT-116 colon
smiles,measurement,setting,value
CCN(CC)CCOc1cccc2nc3c(cc12)Cn1c-3cc2c(c1=O)COC(=O)C2(O)CC (stereo not given),GI50,786-0 renal,595 nM
same,TGI,786-0 renal,11.7 µM
same,GI50,NCI/ADR-RES ovarian,886 nM and 3070 nM
same,TGI,NCI/ADR-RES ovarian,18 µM and 19.1 µM
same,GI50,HOP-18 NSCLC,2340 nM and 2650 nM
same,TGI,HOP-18 NSCLC,9.93 µM and 18.9 µM
same,GI50,HCC-2998 colon,7.1 µM
same,TGI,HCC-2998 colon,21.8 µM
same,GI50,MOLT-4 leukemia,103 nM
same,GI50,SNB-75 CNS,1340 nM and 545 nM
same,TGI,SNB-75 CNS,19.5 µM and 5.09 µM
same,GI50,MDA-MB-231 breast,19.8 µM
same,TGI,MDA-MB-231 breast,46.4 µM
same,GI50,SR leukemia,169 nM
same,TGI,SR leukemia,716 nM
same,GI50,SF-295 CNS,261 nM and 691 nM
same,TGI,SF-295 CNS,5.19 µM and 9.4 µM
same,GI50,MALME-3M melanoma,11.1 µM and 12.3 µM
same,TGI,MALME-3M melanoma,24.6 µM and 25 µM
same,GI50,HOP-62 NSCLC,356 nM
same,TGI,HOP-62 NSCLC,2630 nM
same,GI50,SNB-19 CNS,329 nM and 870 nM
same,TGI,SNB-19 CNS,30.6 µM and > 58.1 µM
same,GI50,SK-MEL-2 melanoma,12.3 µM and 17.9 µM
same,TGI,SK-MEL-2 melanoma,25.3 µM and 39.6 µM
same,GI50,SF-268 CNS,212 nM and 188 nM
same,TGI,SF-268 CNS,11.7 µM
same,GI50,M19-MEL melanoma,3.74 µM and 2.38 µM
same,TGI,M19-MEL melanoma,18.5 µM and 17 µM
same,GI50,MCF7 breast,182 nM and 449 nM
same,TGI,MCF7 breast,14.9 µM and 22.4 µM
same,GI50,KM12 colon,4.53 µM and 7.49 µM
same,TGI,KM12 colon,18.5 µM and 25.6 µM
same,GI50,SF-539 CNS,267 nM and 774 nM
same,TGI,SF-539 CNS,1470 nM and 3930 nM
same,GI50,OVCAR-5 ovarian,450 nM and 3460 nM
same,TGI,OVCAR-5 ovarian,3.81 µM and 32.7 µM
same,GI50,OVCAR-3 ovarian,5.64 µM and 9.73 µM
same,TGI,OVCAR-3 ovarian,20.3 µM and 25.9 µM
same,GI50,SK-MEL-5 melanoma,1080 nM
same,TGI,SK-MEL-5 melanoma,6.31 µM
same,GI50,A498 renal,2.13 µM and 3.91 µM
same,TGI,A498 renal,6.74 µM and 18.2 µM
same,GI50,EKVX NSCLC,7.37 µM
same,TGI,EKVX NSCLC,> 40 µM
same,GI50,T-47D breast,739 nM
same,TGI,T-47D breast,7.25 µM
same,GI50,UACC-257 melanoma,11 µM and 7.08 µM
same,TGI,UACC-257 melanoma,23.1 µM and 21 µM
same,GI50,HCT-116 colon,403 nM and 1290 nM
